Measured values reported in ChEMBL document CHEMBL1156829 (Proc Natl Acad Sci U S A, 2008).
pEC50: −log10 of the molar value. “And” between values parts separate entries of the source, which are not always exact repeats. Equal values may be shown once.

Columns and labels:
[1] = NOVARTIS: Cytotoxicity against human hepatocellular carcinoma cell line (Huh7); type: toxicity, cell-based, Huh-7; details: Huh7 cells (hepatocellular carcinoma cell line)
[2] = tested on: Plasmodium falciparum; assay: NOVARTIS: Inhibition of Plasmodium falciparum W2 (drug-resistant) proliferation in erythrocyte-based infection assay; type: functional, organism-based; details: read-out: EC50
[3] = tested on: Plasmodium falciparum; assay: NOVARTIS: Inhibition of Plasmodium falciparum 3D7 (drug-susceptible) proliferation in erythrocyte-based infection assay; type: functional, organism-based

Row | Structure (SMILES) | CC50 [1] [nM] | pEC50 ([2]; Plasmodium falciparum, W2) | pEC50 ([3]; Plasmodium falciparum, 3D7) | pEC50 [2] | pEC50 [3]
1 | CC(C)Cc1ccc(C=CC(=O)NC2CC2)cc1 | > 100000 | 5.83 | 5.94 |  | 
2 | Oc1c2c(nc3cc(-c4ccc(Cl)cc4)nn13)CCCC2 | > 100000 | < 4.90 | 5.19 |  | 
3 | c1cncc(-c2ncc(-c3cnccn3)c(-c3cccnc3)n2)c1 | > 10000 | < 6.43 | < 5.90 |  | 
4 | COc1cc(/C=C2/SC(=Nc3ccccc3)NC2=O)ccc1OC(=O)c1ccccc1 | > 10000 | 6.16 | < 6.03 |  | 
5 | CC(C)NC(=O)N1CCN(C(=O)COC(c2cccs2)c2cccnc2Cl)CC1 (stereo not given) | > 10000 | 5.69 | < 5.90 |  | 
6 | CCC1CCCCN1S(=O)(=O)c1cc(Br)cc2c1N(C(=O)C1CC1)CC2 (stereo not given) | > 100000 | 6.35 | 5.55 |  | 
7 | Clc1ccc2c(NC3CCCCCCC3)ccnc2c1 | > 13700 | 6.06 | 5.98 |  | 
8 | Cc1ccc2c(c1)N(CC(=O)NC1CCCCC1C)C(=O)CO2 (stereo not given) | > 10000 | < 6.09 | 5.70 |  | 
9 | O=C(Nc1ccc(Nc2cc([N+](=O)[O-])ccc2O)c2c1C(=O)c1ccccc1C2=O)c1ccccc1 | > 10000 | < 6.05 | < 5.90 |  | 
10 | COC(C(=NO)c1ccc(Cl)cc1)c1ccccc1 (stereo not given) | > 10000 | < 5.79 | < 6.04 |  | 
11 | Cc1ccc2nc(C)cc(NCCCN(C)C)c2c1 | > 3620 | 6.08 | 6.39 |  | 
12 | COc1cc(C(=O)NCCc2cc3ccccc3[nH]2)ccc1OC1CCN(CC(c2ccccc2)c2ccccc2)CC1 | > 10900 | 7.03 | 6.10 |  | 
13 | COC(=O)C1N(C(=O)OC)c2ccc([N+](=O)[O-])cc2S1(=O)=O (stereo not given) | > 10000 | < 5.89 | 6.44 |  | 
14 | O=C(/C=C/Nc1ccccc1NS(=O)(=O)c1ccc([N+](=O)[O-])cc1)c1ccccc1 | > 10000 | 6.38 | < 5.90 |  | 
15 | COc1cccc(C=NNC(=O)CSc2ccccc2C)c1O | > 100000 | 5.71 | 5.10 |  | 
16 | CC(C)CNc1nc(NCCCN2CCCCC2C)ncc1C(=O)NCc1ccccc1 (stereo not given) | > 10000 | 6.07 | 6.63 |  | 
17 | COc1ccc(Cn2nnnc2CN2CCc3ccccc3C2)cc1 | > 10000 | < 5.90 | < 6.07 |  | 
18 | COc1ccccc1-c1nnc(Nc2nc3cc4c(cc3s2)OCO4)o1 | > 10000 | < 5.90 | < 5.98 |  | 
19 | CCC(C(=O)N1CCN(Cc2ccccc2)CC1)c1ccccc1 (stereo not given) | > 100000 | 6.17 | 5.16 |  | 
20 | O=C(Cn1c(-c2ccccc2)c[n+]2ccsc12)c1ccccc1 | > 10000 | 5.92 | 6.29 |  | 
21 | c1ccc(OCCOc2ccc(Nc3ccnc4cc5ccccc5cc34)cc2)cc1 | 6110 | 7.01 | 6.91 |  | 
22 | C(=C1\C(c2ccccc2)=Nc2ccccc21)/c1c(-c2ccccc2)[nH]c2ccccc12 | > 10000 | 7.44 | 6.68 |  | 
23 | COc1ccccc1/C=C/CN1CCN(c2ccccn2)CC1 | > 10000 | < 5.94 | < 5.79 |  | 
24 | CC(=O)N(C1=C(N2CCOCC2)C(=O)c2ccccc2C1=O)c1ccc(C(C)C)c(C)c1 | 9150 | 7.06 | 7.59 |  | 
25 | C[n+]1ccc(C=Cc2ccc(Br)cc2)cc1 | > 100000 | 6.69 | 6.20 |  | 

Row | Structure (SMILES) | CC50 [1] [nM] | pEC50 ([2]; Plasmodium falciparum, W2) | pEC50 ([3]; Plasmodium falciparum, 3D7) | pEC50 [2] | pEC50 [3]
26 | CCOc1ccc(Nc2cc(=O)oc3ccccc23)cc1 | > 100000 | 7.04 | 6.21 |  | 
27 | c1ccc(CCNc2ncnc3c2[nH]c2ccccc23)cc1 | 15600 | 6.86 | 6.78 |  | 
28 | Cc1ccc2c(c1)C(C)(c1ccc(Cl)cc1)CC(C)(C)N2C(=O)COc1ccc2ccccc2c1 (stereo not given) | > 100000 | 6.91 | < 4.90 |  | 
29 | COc1ccc(C2C(C(=O)OC3CCCC3)=C(C)NC3=C2C(=O)CC(C)(C)C3)cc1Br (stereo not given) | > 100000 | 5.81 | 5.15 |  | 
30 | CC(C)c1ccc(NC(=O)c2ccc(NCCCN3CCN(c4cccc(Cl)c4)CC3)c([N+](=O)[O-])c2)cc1 | > 100000 | 5.55 | 5.79 |  | 
31 | O=C(Nc1ccccc1)C1Cc2ccccc2CN1S(=O)(=O)c1ccc(F)cc1 (stereo not given) | > 100000 | 5.20 | < 4.90 |  | 
32 | O=C(COc1ccc(Cl)cc1)NCc1ccc(CNc2noc3ccccc23)cc1 | 66200 | 5.14 | 5.51 |  | 
33 | C=C[C@H]1CN2CC[C@H]1C[C@@H]2[C@@H](O)c1ccnc2ccccc12 [CINCHONINE] | > 6250 | 6.96 | 7.02 |  | 
34 | CCN(CC)CCCC(C)Nc1cc(/C=C/c2ccc([N+](=O)[O-])cc2)nc2cc(OC)ccc12 (stereo not given) | > 10000 | 6.39 | 6.32 |  | 
35 | COc1cc(/C=C\C(=O)Nc2c3c(nn2-c2ccc(F)cc2)CSC3)cc(OC)c1OC | > 10000 | 7.07 | 6.21 |  | 
36 | CN(C)CCCNc1c2ccccc2nc2ccccc12 | 8450 | 6.41 | 7.49 |  | 
37 | CCN1CCN(c2c(C(=O)c3ccccc3)cnc3cc(OC)c(OC)cc23)CC1 | > 100000 | 5.91 | 5.52 |  | 
38 | CCCCCN(C(=O)c1ccc2ccccc2c1)C(CC)c1nc2ccccc2c(=O)n1-c1ccccc1OC (stereo not given) | > 10000 | < 5.91 | 6.12 |  | 
39 | O=C1c2ccccc2C2=Nc3ccccc3SC(c3ccccc3F)C12 (stereo not given) | 22900 | 6.56 | 6.68 |  | 
40 | CN(C)c1ccc(C=C2SC(=Nc3ccccc3)NC2=O)cc1 | > 74400 |  | 7.57 |  | 
41 | C(#Cc1ccccc1)CN(Cc1ccccn1)Cc1ccccn1 | > 14100 | 6.52 | 5.81 |  | 
42 | CN(C)c1nnc(C(C#N)=Cc2cc(C(=O)c3cccc(Cl)c3)cn2C)o1 | > 100000 | 5.99 | < 4.90 |  | 
43 | O=C(Nc1cc(C(F)(F)F)cc(C(F)(F)F)c1)Nc1ccc(Cl)c(Cl)c1 | 6570 | 6.03 | 6.09 |  | 
44 | Cc1c(C#N)c2ccccc2n1CC(=O)NCCc1ccccc1 | > 100000 | 6.39 | 6.40 |  | 
45 | CC(C)(C)CC(C)(C)Nc1c(-c2ccccc2OC(=O)c2cccc(C(F)(F)F)c2)nc2ccccn12 | > 10000 | 6.87 | 6.02 |  | 
46 | CCn1c(N=Nc2ccc(OC)cc2)nc2ccccc21 | 13000 | 6.94 | 7.01 |  | 
47 | COc1ccc(-c2c[n+](CC(=O)c3ccc([N+](=O)[O-])cc3)c3n2CCC3)cc1 | > 100000 | 6.37 | 6.29 |  | 
48 | CCc1ccc(-n2c(C(CC)N(CCC(C)C)C(=O)Nc3ccc(Cl)c(Cl)c3)nc3ccccc3c2=O)cc1 (stereo not given) | > 10000 | < 6.08 | < 5.90 |  | 
49 | Cc1noc(C)c1S(=O)(=O)N(Cc1ccccc1)CC(O)CN1CCC(NC(=O)c2ccc(F)cc2)C1 (stereo not given) | > 10000 | > 7.92 | 6.35 |  | 
50 | O=C(COC(=O)c1c2c(nc3ccccc13)CCCCCCCCCC2)c1ccc(Cl)cc1 | > 100000 | < 5.00 | < 4.95 |  | 

Row | Structure (SMILES) | CC50 [1] [nM] | pEC50 ([2]; Plasmodium falciparum, W2) | pEC50 ([3]; Plasmodium falciparum, 3D7) | pEC50 [2] | pEC50 [3]
51 | O=C(NCCCCCCNC(=O)Nc1ccc(C2=NCCCN2)cc1)Nc1ccc(C2=NCCCN2)cc1 | > 10000 | > 8.48 | 6.97 |  | 
52 | COc1ccccc1-n1c(/C=C/c2cc(Br)ccc2O)nc2ccccc2c1=O | > 10000 | < 5.98 | < 5.90 |  | 
53 | CCc1nnc2sc(-c3ccc(NC(=O)c4ccc(Br)o4)cc3)nn12 | > 100000 | 6.08 | 5.30 |  | 
54 | CCCN(CCC)S(=O)(=O)c1cc(Br)cc2c1N(C(=O)CC)CC2 | > 100000 | 6.12 | 6.32 |  | 
55 | N#Cc1c(N)nc2sc(C(=O)c3ccc(F)cc3)c(N)c2c1-c1ccccc1 | > 10000 | < 6.04 | < 5.90 |  | 
56 | CCOC(=O)C1=C(C)N=c2sc(=Cc3cc(Cl)ccc3O)c(=O)n2C1c1ccc(OC)c(OC)c1 (stereo not given) | > 100000 |  |  | 5.84 and 6.58 | 
57 | Cc1cc(/C=C2\SC(=Nc3ccccc3)N(C3CCCCC3)C2=O)c(C)n1-c1ccc(F)cc1 | > 100000 | 6.42 |  | 6.17 | 
58 | CC(C)CN1C(=O)c2ccccc2C(C(=O)NC2CCCCC2)C1c1cccs1 (stereo not given) | > 100000 |  |  |  | 
59 | CN[C@@H]1CC2O[C@@](C)([C@@H]1OC)n1c3ccccc3c3c4c(c5c6ccccc6n2c5c31)C(=O)NC4 | 355 |  |  |  | 
60 | C=CC12CCN(CC1)C(C(O)c1ccnc3ccc(OC)cc13)C2 (stereo not given) | 77700 | 7.53 |  |  | 
61 | CC(C)CN1C(=O)c2ccccc2C(C(=O)Nc2ccccc2F)C1c1cccs1 (stereo not given) | > 100000 |  |  |  | 
62 | CCOC(=O)c1c(-c2ccc3c(c2)OCO3)[nH]c2cccc(OC)c2c1=O | > 10000 |  |  |  | 
63 | CC(C)CN1C(=O)c2ccccc2C(C(=O)Nc2cccc(Cl)c2)C1c1cccs1 (stereo not given) | 93600 |  |  |  | 
64 | COC(=O)c1ccc(C2C3=C(O)CC(c4ccco4)CC3=Nc3ccccc3N2C(=O)c2ccccc2)cc1 (stereo not given) | > 100000 |  | 6.41 |  | 6.24
65 | CCOC(=O)c1c[nH]c2c(ccc3ccccc32)c1=O | > 100000 |  |  |  | 
66 | CC(C)CN1C(=O)c2ccccc2C(C(=O)Nc2ccccn2)C1c1cccs1 (stereo not given) | > 100000 |  |  |  | 
67 | CC(C)CN1C(=O)c2ccccc2C(C(=O)Nc2cccc(C(F)(F)F)c2)C1c1cccs1 (stereo not given) | > 100000 |  |  |  | 
68 | Cc1cc(Nc2ccc(C)c(F)c2)n2nc(C)nc2n1 | > 100000 |  | 5.98 |  | 
69 | O=C(Nc1cccc(-c2csc(-c3ccccc3)n2)c1)c1cccs1 |  | 6.17 | 5.90 |  | 
70 | CCCCNc1nc(NC(C)(C)C)nc(NC(C)(C)C)n1 |  | 6.09 | 5.67 |  | 
71 | CN(C)c1ccc(/C=C2/SC(=Nc3ccccc3Cl)NC2=O)cc1 |  |  | < 5.90 | < 6.29 and 5.85 | 6.15
72 | COc1cc(C=NNc2nc3ccccc3[nH]2)cc(Br)c1O |  | < 5.90 | 5.85 |  | 
73 | O=C(CCCn1c2ccccc2c(=O)c2ccccc21)NCc1ccc(F)cc1 |  | 5.96 | 5.96 |  | 
